Values joined by “and” are separate entries in the source; they are usually repeats but may differ in a detail not shown here. Equal values may be shown once.
Experiments:
B16 [1] = assay: Mean % inhibition of primary tumor growth in B16 mouse administration; type: functional
Mus musculus [2] = species on record: Mus musculus
Angiopoietin-1 receptor = Angiopoietin-1 receptor (Homo sapiens, UniProt Q02763); assay: In vitro inhibition of Tyrosine protein kinase receptor TIE-2 (Tek) expressed in baculovirus
Angiopoietin-1 receptor, sequence (Q02763 whole entry): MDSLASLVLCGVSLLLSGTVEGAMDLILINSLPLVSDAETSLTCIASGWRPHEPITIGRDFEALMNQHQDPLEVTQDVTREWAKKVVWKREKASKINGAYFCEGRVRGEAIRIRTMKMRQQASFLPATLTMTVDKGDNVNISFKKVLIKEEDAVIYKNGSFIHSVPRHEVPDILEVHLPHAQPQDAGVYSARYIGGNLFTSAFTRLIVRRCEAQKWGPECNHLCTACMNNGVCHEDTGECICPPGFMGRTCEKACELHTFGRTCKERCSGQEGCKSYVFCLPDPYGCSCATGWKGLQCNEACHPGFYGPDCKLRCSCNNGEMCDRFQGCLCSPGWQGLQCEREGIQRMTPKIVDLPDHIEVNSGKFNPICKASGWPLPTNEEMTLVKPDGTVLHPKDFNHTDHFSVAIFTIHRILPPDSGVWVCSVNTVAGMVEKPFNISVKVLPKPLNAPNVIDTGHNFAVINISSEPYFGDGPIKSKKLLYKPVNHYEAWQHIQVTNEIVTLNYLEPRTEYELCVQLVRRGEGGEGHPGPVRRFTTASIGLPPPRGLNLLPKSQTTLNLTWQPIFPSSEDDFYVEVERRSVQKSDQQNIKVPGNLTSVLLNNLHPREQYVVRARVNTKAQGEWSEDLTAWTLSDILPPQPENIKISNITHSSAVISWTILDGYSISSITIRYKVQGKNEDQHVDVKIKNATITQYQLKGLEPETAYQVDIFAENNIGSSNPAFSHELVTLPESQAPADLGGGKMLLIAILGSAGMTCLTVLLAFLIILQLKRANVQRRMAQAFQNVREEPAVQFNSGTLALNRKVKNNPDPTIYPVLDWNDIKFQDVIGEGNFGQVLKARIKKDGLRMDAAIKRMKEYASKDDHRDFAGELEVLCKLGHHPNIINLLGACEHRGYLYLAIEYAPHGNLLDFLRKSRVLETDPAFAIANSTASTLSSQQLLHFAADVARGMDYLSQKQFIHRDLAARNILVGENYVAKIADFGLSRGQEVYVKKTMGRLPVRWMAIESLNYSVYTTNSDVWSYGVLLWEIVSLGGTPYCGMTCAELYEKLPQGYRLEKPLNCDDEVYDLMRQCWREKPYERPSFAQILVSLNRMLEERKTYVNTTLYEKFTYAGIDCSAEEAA

[3] = biological target: Platelet-derived growth factor receptor beta (Homo sapiens, UniProt P09619)
[4] = biological target: Tyrosine-protein kinase ABL1 (Homo sapiens, UniProt P00519)
Mus musculus [5] = species on record: Mus musculus; remark: listed apart in the source
[6] = biological target: Macrophage colony-stimulating factor 1 receptor (Homo sapiens, UniProt P07333)
[7] = biological target: T1, Vascular endothelial growth factor receptor 2 (Homo sapiens, UniProt P35968)
Mus musculus [8] = species on record: Mus musculus; remark: listed apart in the source
[9] = biological target: Proto-oncogene tyrosine-protein kinase Src (Homo sapiens, UniProt P12931)
[10] = biological target: T1, Vascular endothelial growth factor receptor 2; remark: listed apart in the source
[11] = biological target: Cyclin-dependent kinase 1 (Homo sapiens, UniProt P06493); assay: In vitro inhibition of Cyclin-dependent kinase 1 (CDK-1) expressed in baculovirus
Cyclin-dependent kinase 1, sequence (P06493 whole entry): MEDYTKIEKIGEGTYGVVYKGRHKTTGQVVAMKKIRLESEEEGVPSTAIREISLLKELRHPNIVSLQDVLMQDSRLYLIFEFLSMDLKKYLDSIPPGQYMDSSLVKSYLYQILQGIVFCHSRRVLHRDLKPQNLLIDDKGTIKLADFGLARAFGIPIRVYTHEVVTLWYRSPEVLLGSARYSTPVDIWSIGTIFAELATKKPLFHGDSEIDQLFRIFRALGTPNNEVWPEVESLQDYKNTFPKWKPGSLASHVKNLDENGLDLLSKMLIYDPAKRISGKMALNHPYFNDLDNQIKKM

[12] = biological target: Mast/stem cell growth factor receptor Kit (Homo sapiens, UniProt P10721)
[13] = biological target: Hepatocyte growth factor receptor (Homo sapiens, UniProt P08581); assay: In vitro inhibition of Met proto-oncogene tyrosine kinase (c-Met) expressed in baculovirus
Hepatocyte growth factor receptor, sequence (P08581 whole entry, looked up): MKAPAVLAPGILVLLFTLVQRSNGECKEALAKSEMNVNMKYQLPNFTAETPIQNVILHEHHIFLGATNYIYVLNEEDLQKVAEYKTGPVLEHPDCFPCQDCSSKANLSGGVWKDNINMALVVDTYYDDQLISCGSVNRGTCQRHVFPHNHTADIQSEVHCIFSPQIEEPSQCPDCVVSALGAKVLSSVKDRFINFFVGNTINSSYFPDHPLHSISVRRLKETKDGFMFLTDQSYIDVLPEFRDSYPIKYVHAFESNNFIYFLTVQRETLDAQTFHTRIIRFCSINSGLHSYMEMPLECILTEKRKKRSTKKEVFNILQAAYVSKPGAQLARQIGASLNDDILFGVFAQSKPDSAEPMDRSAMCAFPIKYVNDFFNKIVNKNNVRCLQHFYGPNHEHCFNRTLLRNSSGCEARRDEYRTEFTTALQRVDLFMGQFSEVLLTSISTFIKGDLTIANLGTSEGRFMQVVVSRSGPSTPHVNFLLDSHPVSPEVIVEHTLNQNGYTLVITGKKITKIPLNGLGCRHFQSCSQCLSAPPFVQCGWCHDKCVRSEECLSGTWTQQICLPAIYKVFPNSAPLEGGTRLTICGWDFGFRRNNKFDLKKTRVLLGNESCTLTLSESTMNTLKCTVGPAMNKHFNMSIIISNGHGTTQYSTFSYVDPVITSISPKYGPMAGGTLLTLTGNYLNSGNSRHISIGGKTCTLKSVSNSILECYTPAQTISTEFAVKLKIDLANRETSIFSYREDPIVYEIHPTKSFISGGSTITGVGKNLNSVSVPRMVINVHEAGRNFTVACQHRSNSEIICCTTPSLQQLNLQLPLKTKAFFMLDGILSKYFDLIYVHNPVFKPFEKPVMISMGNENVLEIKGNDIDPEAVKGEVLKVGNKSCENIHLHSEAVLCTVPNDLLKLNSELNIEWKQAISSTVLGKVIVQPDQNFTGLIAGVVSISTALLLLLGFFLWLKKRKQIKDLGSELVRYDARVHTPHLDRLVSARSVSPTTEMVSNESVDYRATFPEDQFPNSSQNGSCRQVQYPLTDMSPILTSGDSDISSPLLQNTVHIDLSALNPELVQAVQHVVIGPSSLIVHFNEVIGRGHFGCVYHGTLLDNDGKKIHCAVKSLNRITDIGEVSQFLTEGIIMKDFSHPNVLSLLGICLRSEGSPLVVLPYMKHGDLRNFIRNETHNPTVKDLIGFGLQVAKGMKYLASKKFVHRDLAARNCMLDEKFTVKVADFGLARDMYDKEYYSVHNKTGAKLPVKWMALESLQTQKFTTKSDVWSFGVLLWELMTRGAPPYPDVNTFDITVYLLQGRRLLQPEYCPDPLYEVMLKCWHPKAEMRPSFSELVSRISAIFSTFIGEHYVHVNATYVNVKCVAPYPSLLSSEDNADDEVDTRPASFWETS

[14] = biological target: Vascular endothelial growth factor receptor 3 (Homo sapiens, UniProt P35916); assay: In vitro inhibition of Vascular endothelial growth factor receptor 3 [VEGFR-3(Flt-4)] expressed in baculovirus
[15] = biological target: Insulin-like growth factor 1 receptor (Homo sapiens, UniProt P08069); assay: In vitro inhibition of Insulin-like growth factor I receptor expressed in baculovirus
Insulin-like growth factor 1 receptor, sequence (P08069 31-736 limits assumed): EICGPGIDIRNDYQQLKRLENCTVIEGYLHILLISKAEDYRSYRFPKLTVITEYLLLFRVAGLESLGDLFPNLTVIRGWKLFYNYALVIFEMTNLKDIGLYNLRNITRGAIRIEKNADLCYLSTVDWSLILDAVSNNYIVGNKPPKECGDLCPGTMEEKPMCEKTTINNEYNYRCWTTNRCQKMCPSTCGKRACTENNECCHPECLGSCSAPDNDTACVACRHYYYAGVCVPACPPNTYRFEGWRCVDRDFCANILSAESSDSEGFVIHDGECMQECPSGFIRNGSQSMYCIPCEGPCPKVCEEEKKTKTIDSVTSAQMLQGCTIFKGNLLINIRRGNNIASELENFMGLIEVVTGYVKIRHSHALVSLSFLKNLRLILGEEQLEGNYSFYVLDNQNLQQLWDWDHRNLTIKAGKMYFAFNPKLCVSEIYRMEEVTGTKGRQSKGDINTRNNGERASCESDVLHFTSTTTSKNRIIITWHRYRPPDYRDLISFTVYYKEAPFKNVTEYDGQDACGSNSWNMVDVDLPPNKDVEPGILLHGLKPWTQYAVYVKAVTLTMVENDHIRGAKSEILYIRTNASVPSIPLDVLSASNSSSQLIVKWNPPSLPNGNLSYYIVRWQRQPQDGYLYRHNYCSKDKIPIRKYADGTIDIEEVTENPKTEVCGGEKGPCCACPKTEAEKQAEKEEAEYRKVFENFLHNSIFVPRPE
Insulin-like growth factor 1 receptor, sequence (P08069 741-1367 limits assumed): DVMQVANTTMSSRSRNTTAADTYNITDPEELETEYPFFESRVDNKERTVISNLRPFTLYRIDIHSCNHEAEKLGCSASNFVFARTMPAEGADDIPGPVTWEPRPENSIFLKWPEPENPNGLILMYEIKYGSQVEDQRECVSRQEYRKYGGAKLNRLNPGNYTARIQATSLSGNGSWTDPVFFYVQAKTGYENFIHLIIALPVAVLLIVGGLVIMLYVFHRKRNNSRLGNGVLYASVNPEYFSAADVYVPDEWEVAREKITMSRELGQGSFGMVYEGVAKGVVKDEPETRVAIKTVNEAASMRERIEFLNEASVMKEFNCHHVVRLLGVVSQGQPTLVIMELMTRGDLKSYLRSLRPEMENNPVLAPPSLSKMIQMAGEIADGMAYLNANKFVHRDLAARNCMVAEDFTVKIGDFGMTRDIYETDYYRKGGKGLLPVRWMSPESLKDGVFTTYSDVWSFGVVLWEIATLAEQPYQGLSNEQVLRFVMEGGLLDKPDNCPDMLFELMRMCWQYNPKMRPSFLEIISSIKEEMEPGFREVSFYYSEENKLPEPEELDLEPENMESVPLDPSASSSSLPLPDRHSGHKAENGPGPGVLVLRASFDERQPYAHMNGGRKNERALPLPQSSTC

Mus musculus [16] = species on record: Mus musculus; remark: listed apart in the source
[17] = Mean % inhibition of induced angiogenesis by Vascular endothelial growth factor (VEGF) at a peroral dose of 50 mg/kg in mice; type: functional; details: Mus musculus, route oral
[18] = biological target: Vascular endothelial growth factor receptor 1 (Homo sapiens, UniProt P17948)
[19] = biological target: Fibroblast growth factor receptor 1 (Homo sapiens, UniProt P11362)
Fibroblast growth factor receptor 1, sequence (P11362 whole entry): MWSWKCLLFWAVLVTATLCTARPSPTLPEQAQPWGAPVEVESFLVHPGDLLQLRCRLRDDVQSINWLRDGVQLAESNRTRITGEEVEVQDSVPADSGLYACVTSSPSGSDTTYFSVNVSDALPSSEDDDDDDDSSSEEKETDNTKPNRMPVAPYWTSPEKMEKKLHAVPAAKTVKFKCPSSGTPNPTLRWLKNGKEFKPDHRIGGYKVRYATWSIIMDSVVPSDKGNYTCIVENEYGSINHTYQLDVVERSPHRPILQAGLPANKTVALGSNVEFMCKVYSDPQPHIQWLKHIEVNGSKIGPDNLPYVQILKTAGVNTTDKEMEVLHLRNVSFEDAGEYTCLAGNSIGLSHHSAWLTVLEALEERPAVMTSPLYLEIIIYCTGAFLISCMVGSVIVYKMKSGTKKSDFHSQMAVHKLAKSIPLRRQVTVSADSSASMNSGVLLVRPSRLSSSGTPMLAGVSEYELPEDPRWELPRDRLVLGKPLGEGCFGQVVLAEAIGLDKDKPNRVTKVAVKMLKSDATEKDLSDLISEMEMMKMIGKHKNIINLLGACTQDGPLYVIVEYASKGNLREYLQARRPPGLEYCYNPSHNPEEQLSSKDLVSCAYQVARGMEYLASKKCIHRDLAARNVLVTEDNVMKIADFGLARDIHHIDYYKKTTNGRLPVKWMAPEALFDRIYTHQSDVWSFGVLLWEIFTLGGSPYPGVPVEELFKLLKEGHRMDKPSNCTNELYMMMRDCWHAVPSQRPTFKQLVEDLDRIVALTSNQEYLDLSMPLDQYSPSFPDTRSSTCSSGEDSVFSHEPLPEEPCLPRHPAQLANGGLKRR

B16 [20] = assay: Mean % inhibition of lymph node metastasis in B16 mouse administration; type: functional
[21] = biological target: Fibroblast growth factor receptor 1 (Mus musculus) (UniProt P16092); assay: Mean % inhibition of induced angiogenesis by Heparin-binding growth factor 2 after intraperitoneal dose of 100 mg/kg in mice; type: functional, organism-based; design: dose 100 mg/kg
[22] = Mean % inhibition of induced angiogenesis by Vascular endothelial growth factor (VEGF) after intraperitoneal dose of 100 mg/kg in mice; type: functional; details: Mus musculus, ip
B16 [23] = assay: Mean % inhibition of lymph node metastasis in B16 mouse administration.; type: functional

| Compound | Inhibition (B16 [1]) | IC50 (Angiopoietin-1 receptor) [nM] | IC50 [4] [nM] | IC50 [6] [nM] | IC50 [9] [nM] | IC50 [11] [nM] | IC50 [12] [nM] | IC50 [13] [nM] | IC50 [14] [nM] | IC50 [15] [nM] | inhibition in vivo at 50 mg/kg [17] [%] | IC50 [19] [nM] | Inhibition (B16 [20]) [%] | also measured |
| --- | --- | --- | --- | --- | --- | --- | --- | --- | --- | --- | --- | --- | --- | --- |
| O=C(Nc1cccc(-c2cncc3ccccc23)c1)c1ccccc1NCc1ccncc1 | 39% and 73% | 6800 | 5330 | 99 | > 10000 | > 10000 | 105 | > 10000 | 52 | 6400 | 100 | 5100 |  | Plasma concentration (Mus musculus [2]): 1.6 µM l-1; IC50 [3]: 357 nM; Plasma concentration (Mus musculus [5]): 1.9 µM l-1; IC50 [7]: 1.16 nM; Plasma concentration (Mus musculus [8]): 3.4 µM l-1; IC50 [10]: 9 nM; Plasma concentration (Mus musculus [16]): 1.9 µM l-1; IC50 [18]: 130 nM |
| O=C(Nc1cccc(C(F)(F)F)c1)c1ccccc1NCc1ccncc1 | 44% | > 10000 | 2820 | 380 | > 10000 | > 10000 | 236 | > 10000 |  | > 10000 | 84 | > 10000 | 85 |  |
| Clc1ccc(Nc2nnc(Cc3ccncc3)c3ccccc23)cc1.O=C(O)CCC(=O)O | 34% |  |  |  |  |  |  |  |  |  | 68 |  | 55 |  |
| Cc1cc(C)c(/C=C2\C(=O)Nc3ccccc32)[nH]1 [SEMAXANIB] |  | > 10000 |  |  |  | > 10000 |  |  | 50 | > 10000 |  |  |  | inhibition [21]: 87%; inhibition in vivo at 100 mg/kg [22]: 65% |
| COc1cc2/c(=N/c3ccc(Br)cc3F)nc[nH]c2cc1OCC1CCN(C)CC1 [VANDETANIB] | 60% |  |  |  |  |  |  |  |  |  | 71 |  |  | Inhibition (B16 [23]): 61% |
